Data: patent US11185544B2, “Formulations of 4-methyl-5-(pyrazin-2-yl)-3H-l,2-dithiole-3-thione, taste-modified formulations, and methods of making and using same” (ST IP Holding AG, priority 2016, dated 2021)

Assays:
[1] = tested on: primary human gingival epithelial cells (HGEPp); test: cells; details: Epithelial cell, 4 h, read-out: IC50 of H2O2 in HGEPp cells
Protocol: Pooled primary HGEPps were propagated in CnT-Prime epithelial culture medium provided by CellnTec on 100 mm petri dishes coated with 30 mg/ml Type I rat tail collagen (BD Biosciences) diluted in Dulbecco's phosphate-buffered saline (DPBS). […] The cells were harvested when they reached 70-90% confluency as observed by light microscopy. For routine cultivation, the medium was changed every 3 days. For both the cell viability and ROS assays, the cells from passages 3-7 were seeded at 5×0 3, 2.5×10 4, 5×0 4 cells/cm 2 density to grow cell monolayers in 24-well flat-bottomed tissue culture plates and acclimated overnight at 37° C. […]
Cell Survival Assay (TACS MTT Kit) • 1. Plate cell concentration was selected to be 6.25×10^5/ml to yield an OD absorbance within the linear portion of the control curve. • 2. Once the HGEPp cells were cultured and ready on the microplate, the media was removed from all the wells and discarded. […] Removed the plate cover and measured the absorbance of the wells, including the blanks at 570 nm. • 8. Determined the average values from triplicate readings after subtracting the average value for the blanks.
HGEPp cells were exposed to different concentrations of H2O2 for 4 h to examine H2O2-induced oxidative stress. The cells were exposed to 0-0.6 mM H2O2 for 4 h and cell viability was evaluated using the TACS MTT Cell Proliferation Assay Kit. […]

[2] = tested on: reactive oxygen species (ROS) in HGEPp cells; details: H2O2-treated cells, 0.3 mM for 4 h
Description: 2. measure the effect of recrystallized oltipraz amd formulated oltipraz on hydroxyl, peroxyl and other reactive oxygen species within HGEPp cells, using Cell Biolabs' OxiSelect™ Intracellular ROS Assay Kit. This assay employs the cell-permeable fluorogenic probe 2′,7′-dichlorodihydrofluorescein diacetate (DCFH-DA) which diffuses into cells and is deacetylated by cellular esterases to a nonfluorescent DCFH which is then rapidly oxidized to highly fluorescent 2′,7′-dichlorodihydrofluorescein (DCF) by ROS.
Pooled primary HGEPps were propagated in CnT-Prime epithelial culture medium provided by CellnTec on 100 mm petri dishes coated with 30 mg/ml Type I rat tail collagen (BD Biosciences) diluted in Dulbecco's phosphate-buffered saline (DPBS). […] The cells were harvested when they reached 70-90% confluency as observed by light microscopy. For routine cultivation, the medium was changed every 3 days. […]
Oxidative Stress Measurement ROS Assay (OxiSelect Kit) • 1. […] Once the HGEPp cells were cultured and ready on a microplate, the media was removed from all the wells and discarded. […] Fluorescence was read on a Fluorescence Plate Reader after 1 hour. […] Transferred 150 μL of the mixture to a fresh 24-well plate for fluorescence measurements at 530 nm. […]
Intracellular ROS was measured using a Spectramax M3 microplate reader.

## OO [Sample H2O2, hydrogen peroxide]
[1]
  IC50: 300 µM
[2]
  ROS levels compared to normal control cells (100%): 128%
